ChEMBL document CHEMBL5291721, “A preclinical secondary pharmacology resource illuminates target-adverse drug reaction associations of marketed drugs” (Nat Commun, 2023)
Values belong to the compound of their own block, whether it stands above or below them.

Legend:
[1] = target: 5-hydroxytryptamine receptor 2B (Homo sapiens, UniProt P41595)
Estrogen receptor [2] = target: T1, Estrogen receptor (Homo sapiens, UniProt P03372); type: functional
T1 sequence (P03372 whole entry): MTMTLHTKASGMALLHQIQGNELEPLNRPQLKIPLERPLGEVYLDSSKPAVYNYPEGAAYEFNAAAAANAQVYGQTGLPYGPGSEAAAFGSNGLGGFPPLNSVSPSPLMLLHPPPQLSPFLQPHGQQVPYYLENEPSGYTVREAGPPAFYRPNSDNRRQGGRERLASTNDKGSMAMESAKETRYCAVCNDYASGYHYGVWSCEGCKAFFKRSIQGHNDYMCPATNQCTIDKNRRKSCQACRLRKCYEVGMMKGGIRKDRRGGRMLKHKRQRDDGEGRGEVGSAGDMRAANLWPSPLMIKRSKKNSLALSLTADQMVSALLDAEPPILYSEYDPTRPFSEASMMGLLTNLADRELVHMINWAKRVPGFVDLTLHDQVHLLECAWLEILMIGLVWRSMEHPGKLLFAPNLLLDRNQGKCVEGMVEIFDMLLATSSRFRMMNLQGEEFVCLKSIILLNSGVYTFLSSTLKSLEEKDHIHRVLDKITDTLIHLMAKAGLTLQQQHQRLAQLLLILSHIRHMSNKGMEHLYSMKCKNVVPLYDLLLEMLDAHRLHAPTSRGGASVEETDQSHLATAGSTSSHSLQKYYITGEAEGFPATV

[3] = target: Epidermal growth factor receptor (Homo sapiens, UniProt P00533); type: functional
Estrogen receptor [4] = target: T1, Estrogen receptor; type: functional; remark: listed apart in the source
[5] = target: Vascular endothelial growth factor receptor 2 (Homo sapiens, UniProt P35968); type: functional
Thromboxane A2 receptor = target: T2, Thromboxane A2 receptor (Homo sapiens, UniProt P21731); type: functional, cell-based
T2 sequence (P21731 whole entry): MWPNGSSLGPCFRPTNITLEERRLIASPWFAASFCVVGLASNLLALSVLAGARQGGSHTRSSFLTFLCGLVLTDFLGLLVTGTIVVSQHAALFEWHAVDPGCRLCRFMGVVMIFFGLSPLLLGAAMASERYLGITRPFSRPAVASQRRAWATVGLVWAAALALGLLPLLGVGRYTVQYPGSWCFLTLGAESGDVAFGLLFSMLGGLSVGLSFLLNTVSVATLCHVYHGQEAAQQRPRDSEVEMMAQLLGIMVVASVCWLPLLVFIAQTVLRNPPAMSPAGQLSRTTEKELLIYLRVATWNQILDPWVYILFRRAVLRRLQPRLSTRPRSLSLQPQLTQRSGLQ

[6] = target: T3, Muscarinic acetylcholine receptor M1 (Homo sapiens, UniProt P11229); type: functional, cell-based
T3 sequence (P11229 whole entry): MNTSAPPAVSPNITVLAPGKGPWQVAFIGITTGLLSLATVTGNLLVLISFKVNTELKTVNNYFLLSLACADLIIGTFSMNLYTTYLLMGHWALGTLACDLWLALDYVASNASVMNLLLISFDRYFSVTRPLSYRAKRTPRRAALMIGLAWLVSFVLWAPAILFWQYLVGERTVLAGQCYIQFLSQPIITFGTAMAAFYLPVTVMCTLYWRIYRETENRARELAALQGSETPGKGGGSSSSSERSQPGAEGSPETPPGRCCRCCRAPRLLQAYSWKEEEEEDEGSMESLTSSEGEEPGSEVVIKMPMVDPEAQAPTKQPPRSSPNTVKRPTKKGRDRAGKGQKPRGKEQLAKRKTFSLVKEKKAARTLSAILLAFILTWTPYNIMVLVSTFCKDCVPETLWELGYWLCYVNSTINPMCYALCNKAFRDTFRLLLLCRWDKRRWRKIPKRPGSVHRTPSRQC

[7] = target: T3, Muscarinic acetylcholine receptor M1; type: functional, cell-based; remark: listed apart in the source
D(1A) dopamine receptor = D(1A) dopamine receptor (Homo sapiens, UniProt P21728)
Note: assay procedure not described here.

Sequence of Epidermal growth factor receptor (P00533 whole entry): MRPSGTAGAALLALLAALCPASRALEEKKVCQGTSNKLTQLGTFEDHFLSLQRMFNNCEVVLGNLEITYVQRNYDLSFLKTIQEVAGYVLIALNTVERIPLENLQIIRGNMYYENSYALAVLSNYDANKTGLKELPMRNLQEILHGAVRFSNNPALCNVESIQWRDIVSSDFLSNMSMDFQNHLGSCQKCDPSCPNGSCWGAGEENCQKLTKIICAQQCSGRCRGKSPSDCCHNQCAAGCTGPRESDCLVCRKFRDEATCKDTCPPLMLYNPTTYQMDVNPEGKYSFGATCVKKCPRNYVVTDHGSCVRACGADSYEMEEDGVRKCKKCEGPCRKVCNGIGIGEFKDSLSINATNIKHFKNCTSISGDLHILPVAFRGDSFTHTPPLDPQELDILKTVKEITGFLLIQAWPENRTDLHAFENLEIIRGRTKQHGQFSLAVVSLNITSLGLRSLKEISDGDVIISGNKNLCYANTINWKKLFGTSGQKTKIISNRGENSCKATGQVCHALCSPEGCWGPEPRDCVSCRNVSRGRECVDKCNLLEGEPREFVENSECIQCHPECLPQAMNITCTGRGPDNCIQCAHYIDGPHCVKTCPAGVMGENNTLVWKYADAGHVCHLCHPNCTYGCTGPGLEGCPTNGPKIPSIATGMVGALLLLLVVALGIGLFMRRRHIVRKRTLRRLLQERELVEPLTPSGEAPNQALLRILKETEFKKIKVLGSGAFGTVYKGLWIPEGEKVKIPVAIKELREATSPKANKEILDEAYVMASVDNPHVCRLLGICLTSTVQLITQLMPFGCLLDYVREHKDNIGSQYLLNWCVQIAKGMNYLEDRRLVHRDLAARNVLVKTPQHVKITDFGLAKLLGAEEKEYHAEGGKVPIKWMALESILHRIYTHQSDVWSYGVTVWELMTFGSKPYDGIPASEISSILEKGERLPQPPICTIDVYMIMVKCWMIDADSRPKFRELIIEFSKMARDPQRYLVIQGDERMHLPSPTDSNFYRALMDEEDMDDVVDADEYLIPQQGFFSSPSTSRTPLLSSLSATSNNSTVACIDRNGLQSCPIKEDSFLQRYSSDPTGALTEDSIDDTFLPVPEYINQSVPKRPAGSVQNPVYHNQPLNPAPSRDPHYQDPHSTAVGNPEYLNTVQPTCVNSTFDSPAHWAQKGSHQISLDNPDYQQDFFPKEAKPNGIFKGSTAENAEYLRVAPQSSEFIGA
Sequence of Vascular endothelial growth factor receptor 2 (P35968 whole entry): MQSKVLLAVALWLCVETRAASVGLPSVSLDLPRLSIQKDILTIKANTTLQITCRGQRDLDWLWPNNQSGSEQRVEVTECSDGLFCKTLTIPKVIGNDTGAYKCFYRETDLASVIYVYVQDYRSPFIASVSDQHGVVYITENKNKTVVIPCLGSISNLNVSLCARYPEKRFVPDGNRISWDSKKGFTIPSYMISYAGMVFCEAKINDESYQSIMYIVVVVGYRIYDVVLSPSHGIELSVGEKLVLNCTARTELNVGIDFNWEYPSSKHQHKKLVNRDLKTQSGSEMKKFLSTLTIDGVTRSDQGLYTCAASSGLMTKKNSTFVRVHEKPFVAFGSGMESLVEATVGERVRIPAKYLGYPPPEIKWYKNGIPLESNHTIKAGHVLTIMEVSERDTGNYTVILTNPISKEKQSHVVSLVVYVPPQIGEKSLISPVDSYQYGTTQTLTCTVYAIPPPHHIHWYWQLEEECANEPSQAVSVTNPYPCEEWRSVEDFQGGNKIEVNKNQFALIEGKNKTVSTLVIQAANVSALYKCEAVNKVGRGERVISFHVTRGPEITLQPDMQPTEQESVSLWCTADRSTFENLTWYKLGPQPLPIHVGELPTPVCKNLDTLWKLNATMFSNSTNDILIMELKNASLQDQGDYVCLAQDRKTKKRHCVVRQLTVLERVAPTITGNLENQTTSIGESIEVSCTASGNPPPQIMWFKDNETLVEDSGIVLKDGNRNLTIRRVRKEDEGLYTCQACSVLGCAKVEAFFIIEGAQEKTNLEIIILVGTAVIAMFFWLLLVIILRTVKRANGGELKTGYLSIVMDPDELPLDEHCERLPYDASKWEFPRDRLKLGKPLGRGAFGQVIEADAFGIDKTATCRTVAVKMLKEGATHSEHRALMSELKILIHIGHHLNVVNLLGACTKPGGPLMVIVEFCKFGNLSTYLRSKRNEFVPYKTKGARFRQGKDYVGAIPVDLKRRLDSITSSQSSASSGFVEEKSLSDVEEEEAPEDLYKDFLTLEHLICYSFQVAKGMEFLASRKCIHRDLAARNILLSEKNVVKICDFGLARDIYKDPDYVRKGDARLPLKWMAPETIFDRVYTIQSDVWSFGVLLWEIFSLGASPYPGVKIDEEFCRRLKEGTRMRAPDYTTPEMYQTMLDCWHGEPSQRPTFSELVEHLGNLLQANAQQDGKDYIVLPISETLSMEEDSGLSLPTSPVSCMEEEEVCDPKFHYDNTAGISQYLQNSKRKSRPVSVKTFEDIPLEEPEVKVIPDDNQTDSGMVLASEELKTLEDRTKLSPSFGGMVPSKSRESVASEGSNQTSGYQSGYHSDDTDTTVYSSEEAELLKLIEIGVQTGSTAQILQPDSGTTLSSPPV
Sequence of D(1A) dopamine receptor (P21728 whole entry): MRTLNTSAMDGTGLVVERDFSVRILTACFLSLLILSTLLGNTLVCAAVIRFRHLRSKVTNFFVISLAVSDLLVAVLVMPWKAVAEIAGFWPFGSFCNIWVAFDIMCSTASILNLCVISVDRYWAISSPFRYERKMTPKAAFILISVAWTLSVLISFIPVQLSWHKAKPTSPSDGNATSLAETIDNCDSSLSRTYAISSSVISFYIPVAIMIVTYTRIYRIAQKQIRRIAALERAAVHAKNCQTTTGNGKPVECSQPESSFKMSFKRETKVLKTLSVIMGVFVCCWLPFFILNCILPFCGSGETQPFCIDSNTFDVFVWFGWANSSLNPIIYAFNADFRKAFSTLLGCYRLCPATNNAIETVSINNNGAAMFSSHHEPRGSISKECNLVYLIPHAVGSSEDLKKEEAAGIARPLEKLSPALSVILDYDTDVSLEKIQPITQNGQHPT
Sequence of 5-hydroxytryptamine receptor 2B (P41595 whole entry): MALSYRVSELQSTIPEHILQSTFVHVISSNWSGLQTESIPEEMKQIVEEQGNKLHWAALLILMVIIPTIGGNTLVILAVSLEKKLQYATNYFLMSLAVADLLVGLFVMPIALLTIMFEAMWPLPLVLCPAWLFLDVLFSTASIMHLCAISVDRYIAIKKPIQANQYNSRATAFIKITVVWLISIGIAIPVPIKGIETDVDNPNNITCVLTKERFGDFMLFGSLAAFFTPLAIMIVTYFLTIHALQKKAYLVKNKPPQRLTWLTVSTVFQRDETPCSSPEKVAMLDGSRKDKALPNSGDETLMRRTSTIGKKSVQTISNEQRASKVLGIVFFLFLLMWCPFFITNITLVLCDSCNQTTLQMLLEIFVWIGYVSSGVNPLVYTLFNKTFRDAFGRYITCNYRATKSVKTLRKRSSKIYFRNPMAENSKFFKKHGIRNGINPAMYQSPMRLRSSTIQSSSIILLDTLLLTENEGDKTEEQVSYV

AC50 [1]: 0.933 µM
Compound: CC(Cc1cccc(C(F)(F)F)c1)NCCOC(=O)c1ccccc1 (centres undefined) [BENFLUOREX]

Compound: CC(C)c1cccc(C(C)C)c1O [PROPOFOL]
AC50 (Estrogen receptor [2]): > 30 µM
AC50 [3]: > 30 µM
AC50 (Estrogen receptor [4]): > 30 µM
AC50 [5]: > 30 µM
AC50 (Thromboxane A2 receptor): > 30 µM

AC50 [6]: 0.12 µM
AC50 [7]: > 30 µM
Compound: C[N+]1(C)CCC(=C(c2ccccc2)c2ccccc2)CC1

Compound: CNCCc1ccc(OC(=O)C(C)C)c(OC(=O)C(C)C)c1 [IBOPAMINE]
AC50 (D(1A) dopamine receptor): > 30 µM
